This passage reports Ki and EC50 results from patent US7442687B2, “2-polycyclic propynyl adenosine analogs having A2A agonist activity” (The University of Virginia Patent Foundation, priority 2004, dated 2008).

One experiment deals with T1, human A3 AR (Homo sapiens, UniProt P0DMS8).
T1 construct: expressed in transfected cells
T1 sequence (P0DMS8 1-318): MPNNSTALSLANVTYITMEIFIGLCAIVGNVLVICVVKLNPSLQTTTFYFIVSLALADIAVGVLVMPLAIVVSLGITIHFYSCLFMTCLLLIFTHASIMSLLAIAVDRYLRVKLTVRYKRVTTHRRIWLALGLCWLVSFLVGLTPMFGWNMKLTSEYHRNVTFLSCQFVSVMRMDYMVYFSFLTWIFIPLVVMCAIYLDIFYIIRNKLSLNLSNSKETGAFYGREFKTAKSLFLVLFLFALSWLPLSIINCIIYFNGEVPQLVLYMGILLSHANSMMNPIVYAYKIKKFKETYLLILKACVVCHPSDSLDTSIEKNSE
The experiment in a line: Radioligand binding (125I-ABA competition) to human A3 AR in HEK 293 cell membranes. The conditions noted are these: read-out: Binding Affinity A3. On the procedure:
(§1) Sf9 cells were cultured in Grace's medium supplemented with 10% fetal bovine serum, 2.5 μg/ml amphotericin B and 50 μg/ml gentamycin in an atmosphere of 50% N2/50% O2. Viral infection was performed at a density of 2.5×10^6 cells/mL with a multiplicity of infection of two for each virus used. Infected cells were harvested 3 days post-infection and washed twice in insect PBS (PBS pH 6.3). Cells were then resuspended in lysis buffer (20 mM HEPES pH 7.5, 150 mM NaCl, 3 mM MgCl2, 1 mM β-mercaptoethanol (BME), 5 μg/mL leupeptin, 5 μg/mL pepstatin A, 1 μg/mL aprotinin, and 0.1 mM PMSF) and snap frozen for storage at −80° C. Cells were thawed on ice, brought to 30 mL total volume in lysis buffer, and burst by N2 cavitation (600 psi for 20 minutes). A low-speed centrifugation was performed to remove any unlysed cells (1000×g for 10 minutes), followed by a high-speed centrifugation (17,000×g for 30 minutes). The pellet from the final centrifugation was homogenized in buffer containing 20 mM HEPES pH 8, 100 mM NaCl, 1% glycerol, 2 μg/mL leupeptin, 2 μg/mL pepstatin A, 2 μg/mL Aprotinin, 0.1 mM PMSF, and 10 μM GDP using a small glass homogenizer followed by passage through a 26 gauge needle. Membranes were aliquoted, snap frozen in liquid N2, and stored at −80° C. Membranes from cells stably expressing the human A1 AR (CHO K1 cells) or A3 AR (HEK 293 cells) were prepared as described (Robeva et al., 1996).
(§2) Radioligand binding to recombinant human A2A receptors in Sf9 cell membranes was performed using either the radio labeled agonist, ^125I-APE (Luthin et al., 1995) or the radio labeled antagonist, ^125I-ZM241385 (^1251-ZM). To detect the high affinity, GTPγS-sensitive state of A1 and A3 AR, we used the agonist, ^125I-ABA (Linden et al., 1985;Linden et al., 1993). Binding experiments were performed in triplicate with 5 μg (A2A) or 25 μg (A1 and A3) membrane protein in a total volume of 0.1 mL HE buffer (20 mM HEPES and 1 mM EDTA) with 1 U/mL adenosine deaminase and 5 mM MgCl2 with or without 50 μM GTPγS. Membranes were incubated with radioligands at room temperature for three hours (for agonists) or two hours (for antagonists) in Millipore Multiscreen® 96-well GF/C filter plates and assays were terminated by rapid filtration on a cell harvester (Brandel, Gaithersburg, Md.) followed by 4×150 μl washes over 30 seconds with ice cold 10 mM Tris-HCl, pH 7.4, 10 mM MgCl2. Nonspecific binding was measured in the presence of 50 μM NECA. Competition binding assays were performed as described (Robeva et al., 1996) using 0.5-1 nM ^125I-APE, ^125I-ZM241385, or ^125I-ABA. […] The Ki values for competing compound binding to a single site were derived from IC50 values with correction for radioligand and competing compound depletion as described previously (Linden, 1982).

A further experiment concerns the target T2, human A1 AR (Homo sapiens, UniProt P30542).
T2 construct: expressed in transfected cells
T2 sequence (P30542 1-326): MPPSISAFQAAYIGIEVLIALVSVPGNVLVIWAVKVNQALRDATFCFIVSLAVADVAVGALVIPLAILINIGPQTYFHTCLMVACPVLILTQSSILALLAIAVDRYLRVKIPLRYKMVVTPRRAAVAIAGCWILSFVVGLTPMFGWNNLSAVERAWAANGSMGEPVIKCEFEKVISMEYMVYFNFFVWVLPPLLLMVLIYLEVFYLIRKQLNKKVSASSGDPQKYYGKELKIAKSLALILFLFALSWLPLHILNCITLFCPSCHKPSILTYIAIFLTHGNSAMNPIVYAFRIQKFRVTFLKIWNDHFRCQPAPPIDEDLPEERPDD
The experiment in a line: Radioligand binding (125I-ABA competition) to human A1 AR in CHO K1 cell membranes. The note with it: read-out: Binding Affinity A1. The procedure:
as §1, §2

The test system of the next experiment is human neutrophils. The experiment in a line: Human neutrophil oxidative activity, luminol-enhanced chemiluminescence (TNF-primed, fMLP-stimulated). The conditions noted are these: peak chemiluminescence. It counts as cell-based. From the text:
Chemiluminescence Methods: Luminol enhanced chemiluminescence, a measure of neutrophil oxidative activity, is dependent upon both superoxide production and mobilization of the granule enzyme myeloperoxidase. The light is emitted from unstable high-energy oxygen species such as hypochlorous acid and singlet oxygen generated by activated neutrophils.
Purified human neutrophils (2×10^6/ml) suspended in Hanks balanced salt solution containing 0.1% human serum albumin (HA), adenosine deaminase (1 U/mL) and rolipram (100 nM) were incubated (37° C.) in a water bath for 15 min with or without rhTNF(10 U/ml). Following incubation 100 µL aliquots of the PMN were transferred to wells (White walled clear bottom 96 well tissue culture plates Costar #3670; 2 wells/condition) containing […] and luminol (final concentration […]) with or without adenosine agonist (final agonist concentrations 0.01-1000 nM). The plate was incubated 5 min (37° C.) and then FMLP (501 in HA; final concentration […]) was added to all wells.
Peak chemiluminescence was determined with a Victor 1420 Multilabel Counter in the chemiluminescence mode using the Wallace Workstation software. Data are presented as peak chemiluminescence as percent of activity in the absence of an adenosine agonist. The EC50 was determined using PRISM software. All compounds were tested with PMNs from three separate donors.
Purified neutrophils (˜98% neutrophils and >95% viable by trypan blue exclusion) containing <1 platelet per 5 neutrophils and <50 pg/ml endotoxin (limulus amebocyte lysate assay) were obtained from normal heparinized (10 U/ml) venous blood by a one step Ficoll-hypaque separation procedure (A. Ferrante et al., J. Immunol. Meth., 36, 109 (1980)).
Luminol-enhanced chemiluminescence, a measure of neutrophil oxidative activity, is dependent upon both superoxide production and mobilization of the lysosomal granule enzyme myeloperoxidase. The light is emitted from unstable high-energy oxygen species generated by activated neutrophils. Purified neutrophils (5-10×10^5/ml) were incubated in Hanks balanced salt solution containing 0.1% human serum albumin (1 ml) with the tested A2A agonist with or without rolipram and with or without tumor necrosis factor-alpha (1 U/ml) for 30 minutes at 37° C. in a shaking water bath. Then luminol (1×10^−4 M) enhanced f-met-leu-phe (1 mcM) stimulated chemiluminescence was read with a Chronolog® Photometer (Crono-log Corp., Havertown, Pa.) at 37° C. for 2-4 minutes. Chemiluminescence is reported as relative peak light emitted (=height of the curve) compared to samples with tumor necrosis factor-alpha and without agonist or rolipram.

Experiment [1] has as its target T3, recombinant human A2A receptors (Homo sapiens, UniProt P29274).
T3 construct: expressed in transfected cells; host or cells: Sf9 insect cells, viral infection
Kind of experiment: Radioligand binding to recombinant human A2A receptors in Sf9 cell membranes. The note with it: recombinant human A2A receptor, 125I-APE or 125I-ZM241385, read-out: Binding Affinity A2A. On the procedure:
as §1, §2

Setting [2] is: human neutrophil experiment with Rolipram, read-out: Functional + Roli.
Setting [3] is: human neutrophil experiment without Rolipram, read-out: Functional.

Where two headings read alike, the source gives them in different places.

T3 sequence (P29274 whole entry): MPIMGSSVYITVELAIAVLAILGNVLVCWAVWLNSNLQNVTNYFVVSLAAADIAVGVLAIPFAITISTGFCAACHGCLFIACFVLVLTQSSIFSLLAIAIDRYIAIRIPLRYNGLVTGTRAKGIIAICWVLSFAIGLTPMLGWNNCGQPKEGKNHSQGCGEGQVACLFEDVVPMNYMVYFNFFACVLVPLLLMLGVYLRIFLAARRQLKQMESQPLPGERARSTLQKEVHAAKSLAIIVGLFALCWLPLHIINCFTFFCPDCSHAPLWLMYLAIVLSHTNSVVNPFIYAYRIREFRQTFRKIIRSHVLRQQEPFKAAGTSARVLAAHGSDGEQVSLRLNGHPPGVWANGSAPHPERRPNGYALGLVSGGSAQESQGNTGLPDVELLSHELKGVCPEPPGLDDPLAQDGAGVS

Regarding `CCNC(=O)[C@H]1O[C@@H](n2cnc3c(N)nc(C#CC4(O)CC5CCC4C5)nc32)C(O)C1O` (single isomer, unassigned) [Example 1, 5-[6-Amino-2-(2-hydroxy-bicyclo[2.2.1]hept-2-ylethynyl)-purin-9-yl]-3,4-dihydroxy-tetrahydro-furan-2-carboxylic acid ethylamide], the Ki turned out to be 10 nM on human A3 AR, 31 nM at human A1 AR and 0.2 nM in experiment [1]. For the same compound, the EC50 in the experiment on human neutrophils (setting [2]) is 0.22 nM; in the experiment with human neutrophils (setting [3]), 3.1 nM.

For the compound `CCNC(=O)[C@H]1O[C@@H](n2cnc3c(N)nc(C#CC4(O)CC5CCC4C5)nc32)C(O)C1O` (single isomer, unassigned) [Example 2, 5-[6-Amino-2-(2-hydroxy-bicyclo[2.2.1]hept-2-ylethynyl)-purin-9-yl]-3,4-dihydroxy-tetrahydro-furan-2-carboxylic acid ethylamide], the Ki at human A3 AR turned out to be 3 nM; on human A1 AR, 11 nM; in experiment [1] it was 0.3 nM. Besides, the values for the EC50 with human neutrophils (setting [2]) and in the experiment with human neutrophils (setting [3]) were 0.058 nM and 0.5 nM, respectively.

`CCNC(=O)[C@H]1O[C@@H](n2cnc3c(N)nc(C#CC4(O)C5CC6CC(C5)CC4C6)nc32)C(O)C1O` (stereo in doubt) [Example 3, 5-[6-Amino-2-(2-hydroxy-adamantan-2-ylethynyl)-purin-9-yl]-3,4-dihydroxy-tetrahydro-furan-2-carboxylic acid ethylamide]: the Ki came out at 4 nM at human A3 AR, 75 nM on human A1 AR and 0.2 nM in experiment [1]. Also, the EC50 in the experiment on human neutrophils (Homo sapiens, Neutrophil, human neutrophil experiment with Rolipram, read-out: Functional + Roli) is 0.22 nM; in the experiment with human neutrophils (Homo sapiens, Neutrophil, human neutrophil experiment without Rolipram, read-out: Functional) it was 3.8 nM.

For `CCNC(=O)[C@H]1O[C@@H](n2cnc3c(N)nc(C#CC4(O)CCCC5CCCCC54)nc32)C(O)C1O` (stereo in doubt) [Example 4, 5-[6-Amino-2-(1-hydroxy-decahydro-naphthalen-1-ylethynyl)-purin-9-yl]-3,4-dihydroxy-tetrahydro-furan-2-carboxylic acid ethylamide], the Ki amounted to 28.3 nM at human A3 AR, 7.3 nM at human A1 AR and 6.4 nM in experiment [1]. In addition, the figures for the EC50 with human neutrophils (setting [2]) and in the experiment on human neutrophils (setting [3]) were 3.7 nM and 25 nM, respectively.

In the case of `CCNC(=O)[C@H]1O[C@@H](n2cnc3c(N)nc(C#CC4(O)CCCC5CCCCC54)nc32)C(O)C1O` (stereo in doubt) [Example 5, 5-[6-Amino-2-(1-hydroxy-decahydro-naphthalen-1-ylethynyl)-purin-9-yl]-3,4-dihydroxy-tetrahydro-furan-2-carboxylic acid ethylamide], the Ki worked out at 4.9 nM at human A3 AR, 2.6 nM on human A1 AR and 0.7 nM in experiment [1]. Moreover, the values for the EC50 in the experiment on human neutrophils (setting [2]) and in the experiment on human neutrophils (setting [3]) were 0.28 nM and 2.5 nM, respectively.

Take `Nc1nc(C#CC2(O)C3CC4CC(C3)CC2C4)nc2c1ncn2[C@@H]1O[C@H](CO)C(O)C1O` (stereo in doubt) [Example 6, 2-[6-Amino-2-(2-hydroxy-adamantan-2-ylethynyl)-purin-9-yl]-5-hydroxymethyl-tetrahydro-furan-3,4-diol]: the Ki at human A3 AR came out at 2.9 nM; on human A1 AR, 28.5 nM; in experiment [1], 0.6 nM. Besides, the EC50 in the experiment on human neutrophils (setting [2]) is 0.3 nM; with human neutrophils (setting [3]) it was 4.9 nM.
